Test results as given in the supplement of paper PMC11451515.

Tested on: SEM cells
Assay: cell viability relative to DMSO control; higher = less cytotoxic
Conditions: 48 h
Outline: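 Viability was expressed as a per-plate percentage of DMSO wells, with cell-free wells as background. Leukemia cells (NOMO1 or SEM at 500 cells/well, P12-Ichikawa at 1000 cells/well) were adapted for at least four passages in each medium and seeded in 1536-well plates (5 μl). Library compounds in DMSO were pin-dosed over an 11-point threefold series from 47 μM to 0.79 nM, and CellTiter-Glo One luminescence was read after 48 h at 37°C.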

[1] = HPLM + 10% dialyzed FBS, 0.000781 µM
[2] = HPLM + 10% dialyzed FBS, 0.00234 µM
[3] = HPLM + 10% dialyzed FBS, 0.00702 µM
[4] = HPLM + 10% dialyzed FBS, 0.0211 µM
[5] = HPLM + 10% dialyzed FBS, 0.0632 µM
[6] = HPLM + 10% dialyzed FBS, 0.19 µM
[7] = HPLM + 10% dialyzed FBS, 0.569 µM
[8] = HPLM + 10% dialyzed FBS, 1.71 µM
[9] = HPLM + 10% dialyzed FBS, 5.12 µM
[10] = HPLM + 10% dialyzed FBS, 15.4 µM
[11] = HPLM + 10% dialyzed FBS, 46.1 µM
[12] = RPMI 5 mM glucose + 10% FBS, 0.000781 µM
[13] = RPMI 5 mM glucose + 10% FBS, 0.00234 µM
[14] = RPMI 5 mM glucose + 10% FBS, 0.00702 µM
[15] = RPMI 5 mM glucose + 10% FBS, 0.0211 µM
[16] = RPMI 5 mM glucose + 10% FBS, 0.0632 µM
[17] = RPMI 5 mM glucose + 10% FBS, 0.19 µM
[18] = RPMI 5 mM glucose + 10% FBS, 0.569 µM
[19] = RPMI 5 mM glucose + 10% FBS, 1.71 µM
[20] = RPMI 5 mM glucose + 10% FBS, 5.12 µM
[21] = RPMI 5 mM glucose + 10% FBS, 15.4 µM
[22] = RPMI 5 mM glucose + 10% FBS, 46.1 µM
[23] = RPMI 5 mM glucose + 10% dialyzed FBS, 0.000781 µM
[24] = RPMI 5 mM glucose + 10% dialyzed FBS, 0.00234 µM
[25] = RPMI 5 mM glucose + 10% dialyzed FBS, 0.00702 µM
[26] = RPMI 5 mM glucose + 10% dialyzed FBS, 0.0211 µM
[27] = RPMI 5 mM glucose + 10% dialyzed FBS, 0.0632 µM
[28] = RPMI 5 mM glucose + 10% dialyzed FBS, 0.19 µM
[29] = RPMI 5 mM glucose + 10% dialyzed FBS, 0.569 µM
[30] = RPMI 5 mM glucose + 10% dialyzed FBS, 1.71 µM
[31] = RPMI 5 mM glucose + 10% dialyzed FBS, 5.12 µM
[32] = RPMI 5 mM glucose + 10% dialyzed FBS, 15.4 µM
[33] = RPMI 5 mM glucose + 10% dialyzed FBS, 46.1 µM

Row | Structure (SMILES) | cell viability [1] [%] | cell viability [2] [%] | cell viability [3] [%] | cell viability [4] [%] | cell viability [5] [%] | cell viability [6] [%] | cell viability [7] [%] | cell viability [8] [%] | cell viability [9] [%] | cell viability [10] [%] | cell viability [11] [%] | cell viability [12] [%] | cell viability [13] [%] | cell viability [14] [%] | cell viability [15] [%] | cell viability [16] [%] | cell viability [17] [%] | cell viability [18] [%] | cell viability [19] [%] | cell viability [20] [%] | cell viability [21] [%] | cell viability [22] [%] | cell viability [23] [%] | cell viability [24] [%] | cell viability [25] [%] | cell viability [26] [%] | cell viability [27] [%] | cell viability [28] [%] | cell viability [29] [%] | cell viability [30] [%] | cell viability [31] [%] | cell viability [32] [%] | cell viability [33] [%]
1 | CC(C(C)N1CC(=O)NC(=O)C1)N1CC(=O)NC(=O)C1 (centres undefined) | 97.2 | 136 | 116 | 125 | 116 | 128 | 123 | 106 | 95.2 | 58.4 | 40.5 | 73.4 | 79.9 | 101 | 102 | 92 | 104 | 80.8 | 60.1 | 49 | 31 | 19.7 | 86 | 93.3 | 120 | 134 | 122 | 115 | 128 | 91.3 | 65.7 | 39.1 | 35.1
2 | CN1CCc2c(c3ccccc3n2Cc2ccc(C(=O)NO)cc2)C1 | 81.4 | 76.1 | 79.7 | 95.4 | 84.2 | 79.2 | 70.7 | 83.9 | 88.3 | 25.2 | 11.7 | 87.3 | 78.9 | 88.5 | 92.9 | 84.8 | 78 | 57.5 | 97.3 | 88.3 | 38.6 | 26.2 | 76.7 | 60.4 | 67 | 78.4 | 69.5 | 61.2 | 58.1 | 77.2 | 94.6 | 32 | 22.6
3 | CCOC(=O)c1c(C)n(C)c2ccc(O)cc12 | 99.8 | 95.8 | 97.6 | 96 | 95.6 | 105 | 97 | 103 | 107 | 113 | 104 | 115 | 121 | 107 | 110 | 101 | 119 | 108 | 120 | 114 | 124 | 111 | 115 | 117 | 106 | 118 | 113 | 95.5 | 106 | 112 | 113 | 117 | 116
4 | CN1C(=O)c2sccc2N(C)c2nc(Nc3ccc([S+](N)(=O)[O-])cc3)ncc21 | 94.1 | 93.2 | 103 | 102 | 89.2 | 99.6 | 88.7 | 67.8 | 21.9 | 9.56 | 3.55 | – | – | – | – | – | – | – | – | – | – | – | 112 | 101 | 106 | 105 | 95.6 | 91.4 | 93.7 | 63.6 | 14.8 | 8.42 | 4.39
5 | CCCOc1ccc(C(=O)OCCN(CC)CC)cc1N | 85.3 | 105 | 29.3 | 105 | 104 | 118 | 122 | 104 | 108 | 114 | 97.7 | 94.6 | 110 | 10.1 | 118 | 115 | 107 | 114 | 116 | 105 | 120 | 96.3 | 80 | 88 | 23.2 | 104 | 99.3 | 104 | 95.8 | 98.1 | 106 | 102 | 85.3
6 | Cc1cc(Nc2ncc3c(n2)N(C)C(=O)N(c2cc(NC(=O)c4cccc(C(F)(F)F)c4)ccc2C)C3)n(C)n1 | 88 | 105 | 101 | 88.2 | 115 | 82.3 | 50.1 | 17.8 | 10.8 | 5.81 | 3.72 | 101 | 114 | 111 | 95 | 116 | 79.4 | 40.2 | 11.9 | 7.97 | 5.5 | 3.3 | 108 | 117 | 114 | 93.8 | 128 | 81.3 | 41 | 11.5 | 6.61 | 4.65 | 2.51
7 | C[C@]12CCC3c4ccc(O)cc4CCC3C1CCC2=O (some centres undefined) | 70.1 | 81.6 | 88.8 | 84.5 | 91.4 | 73.6 | 62.2 | 77.8 | 71.7 | 42.2 | 58.9 | 94 | 92.3 | 96.3 | 104 | 88.9 | 106 | 82 | 80.7 | 81.2 | 64.6 | 85 | 103 | 95.4 | 98.4 | 103 | 116 | 99.6 | 80.7 | 82.8 | 93.2 | 35.6 | 71.4
8 | Nc1nc(F)nc2c1ncn2[C@@H]1O[C@H](COP(=O)(O)O)[C@@H](O)[C@@H]1O | 107 | 123 | 117 | 113 | 128 | 117 | 123 | 56.3 | 35.7 | 16.6 | 8.32 | 107 | 130 | 116 | 92.1 | 114 | 123 | 128 | 73.1 | 93.7 | 19.7 | 11.1 | 103 | 126 | 110 | 98.2 | 134 | 114 | 105 | 52.9 | 46.3 | 18 | 9.23
9 | CC(C)(N)C(=O)N[C@H](COCc1ccccc1)C(=O)N1CCC2(CC1)CN([S+](C)(=O)[O-])c1ccccc12 | – | – | – | – | – | – | – | – | – | – | – | 124 | 127 | 122 | 155 | 130 | 130 | 139 | 121 | 114 | 91.9 | 36.8 | – | – | – | – | – | – | – | – | – | – | –
